Laboratory results: patent US20090104167A1, “Prophylactic/Ameliorating Agent for Menopausal Disorder and Functional Beverage/Food” (Calpis Co., Ltd., priority 2005, published 2009)

Key:
[1] = Lignan-metabolizing ability of microorganisms: conversion of pinoresinol to secoisolariciresinol (HPLC); parameters: key to pinoresinol to secoisolariciresinol: o indicates that the lignan was converted in 50% or more; x indicates that most of the lignan was not converted; settings: for pinoresinol to secoisolariciresinol: lignan 0.5 mM in MRS or GAM medium, culture at 37° C., HPLC
Experimental: Lignan-metabolizing abilities of various types of microorganisms were evaluated. The various microorganisms shown in the following Tables 1 to 3 were pre-cultured in MRS medium or GAM medium at 37° C. for 20 to 24 hours, and inoculated at 1 to 3% to 10 ml of MRS medium or GAM medium Du zhong lignan (pinoresinol and medioresinol) was added at a final concentration of 0.5 mM in the medium, and continued to culture at 37° C. Samples were taken at regular intervals and assayed by HPLC to monitor the conversion of lignan to secoisolariciresinol.

[2] = target: T1, human estrogen receptor α (Homo sapiens, UniProt P03372); assay: Inhibition of [3H]estradiol binding to estrogen receptor α; settings: for binding inhibition rate to estrogen receptor α, inhibition rate (%): One millimolar test sample, 0.5 nM tritium-labeled estradiol, 25° C., 2 hours, pH 7.4
T1 sequence (P03372 1-595): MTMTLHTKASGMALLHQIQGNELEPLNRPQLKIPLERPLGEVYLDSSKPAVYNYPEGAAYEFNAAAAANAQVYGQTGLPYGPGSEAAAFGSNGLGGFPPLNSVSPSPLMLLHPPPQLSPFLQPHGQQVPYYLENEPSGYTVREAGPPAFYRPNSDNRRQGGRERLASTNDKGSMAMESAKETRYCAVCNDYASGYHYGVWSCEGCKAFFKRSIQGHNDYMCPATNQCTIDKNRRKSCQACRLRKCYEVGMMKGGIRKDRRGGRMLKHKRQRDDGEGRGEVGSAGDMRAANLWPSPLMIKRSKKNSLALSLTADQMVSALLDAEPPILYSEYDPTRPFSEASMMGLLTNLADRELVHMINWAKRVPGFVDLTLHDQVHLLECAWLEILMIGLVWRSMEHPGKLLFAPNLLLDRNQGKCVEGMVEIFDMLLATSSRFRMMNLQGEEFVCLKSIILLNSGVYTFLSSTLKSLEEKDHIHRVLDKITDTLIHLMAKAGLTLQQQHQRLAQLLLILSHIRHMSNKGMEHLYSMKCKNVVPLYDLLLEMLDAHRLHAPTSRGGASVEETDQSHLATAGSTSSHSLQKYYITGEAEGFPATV
Experimental: (§1) One millimolar of a test sample (pinoresinol diglycoside, pinoresinol and secoisolariciresinol) and 0.5 nM of tritium-labeled estradiol were reacted in 10 mM of tris buffer at pH 7.4 (with 0.1% BSA, 10% Glycerol, 1 mM DTT) containing a human estrogen receptor α or β at 25° C. for 2 hours. After completion of the reaction, the receptor was collected and washed to measure the amount of the tritium-labeled estradiol bound to the receptor according to a conventional method. The binding level of [^3H] Estradiol in the presence of a lignan or a metabolic intermediate was calculated with the binding of 0.5 nM of [^3H] Estradiol to the receptor as 100%, which was subtracted from 100 to define a binding inhibition rate.

[3] = target: human estrogen receptor β (Homo sapiens, UniProt Q92731); assay: Inhibition of [3H]estradiol binding to estrogen receptor β; settings: One millimolar test sample, 0.5 nM tritium-labeled estradiol, 25° C., 2 hours, pH 7.4
Experimental: as §1

human estrogen receptor β, sequence (Q92731 whole entry): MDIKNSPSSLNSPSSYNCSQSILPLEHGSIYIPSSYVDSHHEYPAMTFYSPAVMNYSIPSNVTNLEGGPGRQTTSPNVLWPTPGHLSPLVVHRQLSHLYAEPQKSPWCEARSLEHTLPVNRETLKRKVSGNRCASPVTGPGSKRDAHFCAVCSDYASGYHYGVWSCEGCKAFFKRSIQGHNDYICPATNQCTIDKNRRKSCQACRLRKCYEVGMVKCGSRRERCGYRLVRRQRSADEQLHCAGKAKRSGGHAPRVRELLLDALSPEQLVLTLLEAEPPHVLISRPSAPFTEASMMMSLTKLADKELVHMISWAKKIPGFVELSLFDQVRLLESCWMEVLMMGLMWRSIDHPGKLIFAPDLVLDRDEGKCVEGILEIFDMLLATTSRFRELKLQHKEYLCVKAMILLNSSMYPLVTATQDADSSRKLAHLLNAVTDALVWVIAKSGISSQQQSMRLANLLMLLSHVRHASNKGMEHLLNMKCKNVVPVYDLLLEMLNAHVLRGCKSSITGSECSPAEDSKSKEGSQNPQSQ

Row | Compound | pinoresinol to secoisolariciresinol [1] | binding inhibition rate to estrogen receptor α, inhibition rate (%) [2] [%] | binding inhibition rate to estrogen receptor β, inhibition rate (%) [3] [%] | other results
1 | Bifidobacterium | x | – | – | –
2 | Lactobacillus plantarum | x | – | – | –
3 | Lactobacillus reuteri | x | – | – | –
4 | pinoresinol | – | 23 | 30 | –
5 | COc1cc([C@H]2OC[C@H]3[C@@H]2CO[C@@H]3c2ccc(O[C@@H]3O[C@H](CO)[C@@H](O)[C@H](O)[C@H]3O)c(OC)c2)ccc1O[C@@H]1O[C@H](CO)[C@@H](O)[C@H](O)[C@H]1O [pinoresinol diglycoside] | – | 4 | 5 | –
6 | COc1cc(C[C@@H](CO)[C@H](CO)Cc2ccc(O)c(OC)c2)ccc1O [secoisolariciresinol] | – | 43 | 52 | binding inhibition rate to an estrogen receptor relative to pinoresinol diglycoside ([2]; estrogen receptor subtype not specified, versus pinoresinol diglycoside): ten times higher
7 | Lactobacillus acidophilus | ∘ | – | – | ability to produce secoisolariciresinol from pinoresinol (in words) ([1]; summary of Tables 1 to 3): capable of producing secoisolariciresinol from pinoresinol
